pIC50: −log10 of the molar value.
What was measured:
Assay type in all cases: functional, cell-based
[1] = Antiproliferative activity against human Bel7402 cells after 72 hrs MTT assay; conditions: Bel-7402, 72 h
HeLa = test: Antiproliferative activity against human HeLa cells after 72 hrs MTT assay
[2] = Antiproliferative activity against human HL60 cells after 72 hrs MTT assay; conditions: HL-60, 72 h
[3] = Antiproliferative activity against human SF763 cells after 72 hrs MTT assay; conditions: SF763, 72 h
B16 = test: Antiproliferative activity against mouse B16 cells after 72 hrs MTT assay; conditions: B16, 72 h

Row | Compound | pIC50 [1] | pIC50 (HeLa) | pIC50 [2] | pIC50 [3] | pIC50 (B16)
1 | C=C(C)[C@@H]1CC[C@]2(C(=O)O)CC[C@]3(C)[C@H](CC[C@@H]4[C@@]5(C)C=C(OC(C)=O)C(=O)[C@@](C)(COC(C)=O)[C@@H]5CC[C@]43C)[C@@H]12 | 4.59 | 4.62 | 4.53 | 4.72 | 4.82
2 | C=C(C)[C@@H]1CC[C@]2(C(=O)OCc3ccccc3)CC[C@]3(C)[C@H](CC[C@@H]4[C@@]5(C)CC/C(=N\NS(=O)(=O)c6ccc(C)cc6)[C@@](C)(CO)[C@@H]5CC[C@]43C)[C@@H]12 | 4.58 | 4.66 | 4.54 | 4.74 | 4.79
3 | C=C(C)[C@@H]1CC[C@]2(C(=O)O)CC[C@]3(C)[C@H](CC[C@@H]4[C@@]5(C)CC/C(=N\O)[C@@](C)(CO)[C@@H]5CC[C@]43C)[C@@H]12 | 4.49 | 4.39 | 4.43 | 4.50 | 4.62
4 | C=CCOC(=O)[C@]12CC[C@@H](C(=C)C)[C@@H]1[C@H]1CC[C@@H]3[C@@]4(C)CCC(=O)[C@@](C)(CO)[C@@H]4CC[C@@]3(C)[C@]1(C)CC2 | 4.72 | 4.64 | 4.66 | 4.82 | 4.93
5 | C=C(C)[C@@H]1CC[C@]2(C(=O)OCC(=O)OCC)CC[C@]3(C)[C@H](CC[C@@H]4[C@@]5(C)CC/C(=N\O)[C@@](C)(CO)[C@@H]5CC[C@]43C)[C@@H]12 | 4.51 | 4.52 | 4.47 | 4.58 | 4.75
6 | C=C(C)[C@@H]1CC[C@]2(C(=O)O)CC[C@]3(C)[C@H](CC[C@@H]4[C@@]5(C)CC/C(=N\NS(=O)(=O)c6ccc(C)cc6)[C@@](C)(CO)[C@@H]5CC[C@]43C)[C@@H]12 | 4.40 | 4.35 | 4.33 | 4.60 | 4.48
7 | C=C(C)[C@@H]1CC[C@]2(C(=O)OCC(=O)OCC)CC[C@]3(C)[C@H](CC[C@@H]4[C@@]5(C)CCC(=O)[C@@](C)(CO)[C@@H]5CC[C@]43C)[C@@H]12 | 4.51 | 4.39 | 4.43 | 4.61 | 4.59
8 | C=C(C)[C@@H]1CC[C@]2(C(=O)OCC)CC[C@]3(C)[C@H](CC[C@@H]4[C@@]5(C)CC/C(=N\O)[C@@](C)(CO)[C@@H]5CC[C@]43C)[C@@H]12 | 4.51 | 4.50 | 4.50 | 4.54 | 4.76
9 | C=C(C)[C@@H]1CC[C@]2(C(=O)O[C@@H]3O[C@H](CO)[C@@H](O)[C@H](O)[C@H]3O)CC[C@]3(C)[C@H](CC[C@@H]4[C@@]5(C)CCC(=O)[C@@](C)(CO)[C@@H]5CC[C@]43C)[C@@H]12 | 4.66 | 4.51 | 4.57 | 4.67 | 4.83
10 | C=C(C)[C@@H]1CC[C@]2(C(=O)OCc3ccccc3)CC[C@]3(C)[C@H](CC[C@@H]4[C@@]5(C)C[C@H](CO)[C@H](O)[C@@](C)(CO)[C@@H]5CC[C@]43C)[C@@H]12 | 4.38 | 4.29 | 4.32 | 4.41 | 4.52
11 | C=C(C)[C@@H]1CC[C@]2(C(=O)OCc3ccc(-c4ccccc4C#N)cc3)CC[C@]3(C)[C@H](CC[C@@H]4[C@@]5(C)CCC(=O)[C@@](C)(CO)[C@@H]5CC[C@]43C)[C@@H]12 | 4.99 | 4.82 | 4.84 | 5.00 | 5.00
12 | C=C(C)[C@@H]1CC[C@]2(C(=O)OCC(=O)O)CC[C@]3(C)[C@H](CC[C@@H]4[C@@]5(C)CC/C(=N\O)[C@@](C)(CO)[C@@H]5CC[C@]43C)[C@@H]12 | 4.57 | 4.62 | 4.52 | 4.76 | 4.76
13 | C=C(C)[C@@H]1CC[C@]2(C(=O)NCC(=O)OC)CC[C@]3(C)[C@H](CC[C@@H]4[C@@]5(C)CCC(=O)[C@@](C)(COC(C)=O)[C@@H]5CC[C@]43C)[C@@H]12 | 4.81 | 4.77 | 4.72 | 4.87 | 4.97
14 | C=C(C)[C@@H]1CC[C@]2(C(=O)OCCO)CC[C@]3(C)[C@H](CC[C@@H]4[C@@]5(C)CCC(=O)[C@@](C)(COC(C)=O)[C@@H]5CC[C@]43C)[C@@H]12 | 4.56 | 4.61 | 4.51 | 4.66 | 4.74
15 | C=C(C)[C@@H]1CC[C@]2(C(=O)O)CC[C@]3(C)[C@H](CC[C@@H]4[C@@]5(C)CCC(=O)[C@@](C)(COC(C)=O)[C@@H]5CC[C@]43C)[C@@H]12 | 4.53 | 4.49 | 4.52 | 4.54 | 4.77
16 | C=C(C)[C@@H]1CC[C@]2(C(=O)O)CC[C@]3(C)[C@H](CC[C@@H]4[C@@]5(C)C=C(O)C(=O)[C@@](C)(CO)[C@@H]5CC[C@]43C)[C@@H]12 | 4.71 | 4.70 | 4.66 | 4.84 | 4.95
17 | C=C(C)[C@@H]1CC[C@]2(C(=O)OCc3ccccc3)CC[C@]3(C)[C@H](CC[C@@H]4[C@@]5(C)C[C@H](OC(C)=O)[C@H](OC(C)=O)[C@@](C)(COC(C)=O)[C@@H]5CC[C@]43C)[C@@H]12 | 4.46 | 4.34 | 4.34 | 4.49 | 4.67
18 | C=CCOC(=O)[C@]12CC[C@@H](C(=C)C)[C@@H]1[C@H]1CC[C@@H]3[C@@]4(C)CC/C(=N\O)[C@@](C)(CO)[C@@H]4CC[C@@]3(C)[C@]1(C)CC2 | 4.65 | 4.60 | 4.62 | 4.81 | 4.88
19 | C=C(C)[C@@H]1CC[C@]2(C(=O)Oc3ccc(C#N)cc3)CC[C@]3(C)[C@H](CC[C@@H]4[C@@]5(C)CCC(=O)[C@@](C)(COC(C)=O)[C@@H]5CC[C@]43C)[C@@H]12 | 5.03 | 4.93 | 4.94 | 5.04 | 5.04
20 | COc1cccc2c1C(=O)c1c(O)c3c(c(O)c1C2=O)C[C@@](O)(C(=O)CO)C[C@@H]3O[C@H]1C[C@H](N)[C@H](O)[C@H](C)O1 [DOXORUBICIN] | 6.66 | 6.68 |  |  | 6.74
21 | C=C(C)[C@@H]1CC[C@]2(C(=O)OCC)CC[C@]3(C)[C@H](CC[C@@H]4[C@@]5(C)CCC(=O)[C@@](C)(CO)[C@@H]5CC[C@]43C)[C@@H]12 | 4.51 | 4.43 | 4.50 | 4.54 | 4.71
22 | C=C(C)[C@@H]1CC[C@]2(C(=O)O)CC[C@]3(C)[C@H](CC[C@@H]4[C@@]5(C)C[C@H](OC(C)=O)[C@H](OC(C)=O)[C@@](C)(COC(C)=O)[C@@H]5CC[C@]43C)[C@@H]12 | 4.30 | 4.23 | 4.24 | 4.34 | 4.52
23 | C=C(C)[C@@H]1CC[C@]2(C(=O)N3CCOCC3)CC[C@]3(C)[C@H](CC[C@@H]4[C@@]5(C)CCC(=O)[C@@](C)(COC(C)=O)[C@@H]5CC[C@]43C)[C@@H]12 | 4.98 | 4.99 | 4.92 | 5.00 | 5.09
24 | C=C(C)[C@@H]1CC[C@]2(C(=O)OCc3ccccc3)CC[C@]3(C)[C@H](CC[C@@H]4[C@@]5(C)C[C@H](O)[C@H](O)[C@@](C)(CO)[C@@H]5CC[C@]43C)[C@@H]12 | 4.40 | 4.30 | 4.30 | 4.47 | 4.58
25 | C=C(C)[C@@H]1CC[C@]2(C(=O)O)CC[C@]3(C)[C@H](CC[C@@H]4[C@@]5(C)C[C@H](CO)[C@H](O)[C@@](C)(CO)[C@@H]5CC[C@]43C)[C@@H]12 | 4.23 | 4.15 | 4.16 | 4.30 | 4.32
26 | C=C(C)[C@@H]1CC[C@]2(C(=O)OCc3ccccc3)CC[C@]3(C)[C@H](CC[C@@H]4[C@@]5(C)CCC(=O)[C@@](C)(CO)[C@@H]5CC[C@]43C)[C@@H]12 | 4.70 | 4.58 | 4.62 | 4.71 | 4.85
27 | C=C(C)[C@@H]1CC[C@]2(C(=O)O)CC[C@]3(C)[C@H](CC[C@@H]4[C@@]5(C)C[C@H](O)[C@H](O)[C@@](C)(CO)[C@@H]5CC[C@]43C)[C@@H]12 | 4.25 | 4.17 | 4.18 | 4.27 | 4.43
28 | C=C(C)[C@@H]1CC[C@]2(C(=O)O)CC[C@]3(C)[C@H](CC[C@@H]4[C@@]5(C)C[C@H](COC(C)=O)[C@H](OC(C)=O)[C@@](C)(COC(C)=O)[C@@H]5CC[C@]43C)[C@@H]12 | 4.30 | 4.21 | 4.22 | 4.34 | 4.41
